Source: ChEMBL document CHEMBL1126397, “Synthesis of acid stable 5-o-fluoromethyl phosphonates of nucleosides. Evaluation as inhibitors of reverse transcriptase” (Bioorg Med Chem Lett, 1992)

Target: T1, Avian myoblastosis virus polyprotein II (Avian myeloblastosis virus, UniProt Q86831)
T1 sequence (Q86831 whole entry): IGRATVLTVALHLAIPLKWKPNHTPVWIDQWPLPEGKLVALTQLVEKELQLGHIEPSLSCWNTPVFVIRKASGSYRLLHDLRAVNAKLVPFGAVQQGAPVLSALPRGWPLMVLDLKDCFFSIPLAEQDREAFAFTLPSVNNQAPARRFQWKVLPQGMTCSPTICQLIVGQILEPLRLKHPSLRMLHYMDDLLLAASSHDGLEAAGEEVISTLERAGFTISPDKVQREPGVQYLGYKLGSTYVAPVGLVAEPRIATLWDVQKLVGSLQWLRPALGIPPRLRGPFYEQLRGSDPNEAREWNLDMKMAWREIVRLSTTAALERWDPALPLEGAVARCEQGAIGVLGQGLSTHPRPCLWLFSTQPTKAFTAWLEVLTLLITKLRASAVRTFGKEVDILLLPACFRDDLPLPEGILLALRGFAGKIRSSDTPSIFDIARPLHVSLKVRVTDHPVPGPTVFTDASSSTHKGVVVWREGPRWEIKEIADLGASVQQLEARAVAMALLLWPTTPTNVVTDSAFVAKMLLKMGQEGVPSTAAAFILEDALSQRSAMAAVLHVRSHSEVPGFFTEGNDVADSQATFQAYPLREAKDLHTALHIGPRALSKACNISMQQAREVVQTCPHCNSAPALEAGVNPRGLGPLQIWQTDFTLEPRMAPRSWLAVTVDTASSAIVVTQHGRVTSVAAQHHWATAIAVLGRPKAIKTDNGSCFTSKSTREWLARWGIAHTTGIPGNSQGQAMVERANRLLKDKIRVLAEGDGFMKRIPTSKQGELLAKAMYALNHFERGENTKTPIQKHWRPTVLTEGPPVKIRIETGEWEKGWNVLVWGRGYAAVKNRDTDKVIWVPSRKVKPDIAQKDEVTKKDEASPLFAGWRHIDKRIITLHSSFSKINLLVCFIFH
Test: Inhibitor of avian myeloblastosis virus AMV reverse transcriptase

| SMILES | IC50 |
| --- | --- |
| Cc1cn(C2C=CC(COP(=O)(O)C(F)F)O2)c(=O)[nH]c1=O (stereo not given) | 887 µM |
| Nc1ccn(C2O[C@H](COP(=O)(O)C(F)F)[C@@H](O)[C@H]2O)c(=O)n1 (stereo not given in full) | 171 µM |
| Cc1cn(C2CC(N=[N+]=[N-])C(COP(=O)(O)CF)O2)c(=O)[nH]c1=O (stereo not given) | 127 µM |
| O=c1[nH]c(=O)n([C@H]2C[C@H](O)[C@@H](COP(=O)(O)C(F)F)O2)cc1F | 375 µM |
| Nc1nc(O)c2ncn(C3O[C@H](COP(=O)(O)C(F)(F)F)[C@@H](O)[C@H]3O)c2n1 (stereo not given in full) | 145 µM |
| Cc1cn(C2C=CC(COP(=O)(O)CF)O2)c(=O)[nH]c1=O (stereo not given) | 281 µM |
| Cc1cn(C2CC(N=[N+]=[N-])C(COP(=O)(O)C(F)(F)F)O2)c(=O)[nH]c1=O (stereo not given) | 37.6 µM |
| Cc1cn(C2C=CC(COP(=O)(O)C(F)(F)F)O2)c(=O)[nH]c1=O (stereo not given) | 842 µM |
| Cc1cn(C2CC(N=[N+]=[N-])C(COP(=O)(O)C(F)F)O2)c(=O)[nH]c1=O (stereo not given) | 118 µM |
| O=c1[nH]c(=O)n([C@H]2C[C@H](O)[C@@H](COP(=O)(O)C(F)(F)F)O2)cc1F | 82 µM |
